Data: PubChem BioAssay AID1671319
pIC50: −log10 of the molar value.

Biological target: Tyrosine-protein kinase Lyn (Homo sapiens) (UniProt P07948)
Assay: inhibitors of human LYN isoform B activity – biochemical, Z'-LYTE, FRET readout, dose response (AID 1671319)
Settings: Z'-LYTE FRET kinase assay, recombinant LYN B

Sequence of Tyrosine-protein kinase Lyn (Homo sapiens) (P07948 whole entry, looked up, canonical isoform): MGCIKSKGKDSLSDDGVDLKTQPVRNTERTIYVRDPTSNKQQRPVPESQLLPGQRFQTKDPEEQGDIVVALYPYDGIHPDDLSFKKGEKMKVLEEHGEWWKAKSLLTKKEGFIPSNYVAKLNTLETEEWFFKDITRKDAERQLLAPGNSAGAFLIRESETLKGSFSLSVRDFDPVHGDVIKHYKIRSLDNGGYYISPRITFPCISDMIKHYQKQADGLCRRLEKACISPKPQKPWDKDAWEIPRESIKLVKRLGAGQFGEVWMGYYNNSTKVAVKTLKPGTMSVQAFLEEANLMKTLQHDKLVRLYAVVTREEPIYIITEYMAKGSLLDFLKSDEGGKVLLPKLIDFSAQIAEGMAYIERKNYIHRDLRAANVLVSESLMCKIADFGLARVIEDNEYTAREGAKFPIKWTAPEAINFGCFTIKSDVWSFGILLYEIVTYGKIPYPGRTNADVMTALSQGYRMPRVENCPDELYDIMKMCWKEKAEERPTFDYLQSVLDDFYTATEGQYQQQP

`COc1cc2ncnc(Nc3cccc(Cl)c3)c2cc1OC` gave a pIC50 of 6.61.
